# Assays:
# Insulin receptor = Insulin receptor (Homo sapiens, UniProt P06213); assay: Inhibition of IRK by DELPHIA
# T-cell = assay: Inhibition of anti-CD3/anti-CD28-stimulated IL2 production in human CD4+ T cells
# [1] = target: T1, Tyrosine-protein kinase ITK/TSK (Homo sapiens, UniProt Q08881); assay: Inhibition of ITK by DELPHIA
# T1 sequence (Q08881 whole entry): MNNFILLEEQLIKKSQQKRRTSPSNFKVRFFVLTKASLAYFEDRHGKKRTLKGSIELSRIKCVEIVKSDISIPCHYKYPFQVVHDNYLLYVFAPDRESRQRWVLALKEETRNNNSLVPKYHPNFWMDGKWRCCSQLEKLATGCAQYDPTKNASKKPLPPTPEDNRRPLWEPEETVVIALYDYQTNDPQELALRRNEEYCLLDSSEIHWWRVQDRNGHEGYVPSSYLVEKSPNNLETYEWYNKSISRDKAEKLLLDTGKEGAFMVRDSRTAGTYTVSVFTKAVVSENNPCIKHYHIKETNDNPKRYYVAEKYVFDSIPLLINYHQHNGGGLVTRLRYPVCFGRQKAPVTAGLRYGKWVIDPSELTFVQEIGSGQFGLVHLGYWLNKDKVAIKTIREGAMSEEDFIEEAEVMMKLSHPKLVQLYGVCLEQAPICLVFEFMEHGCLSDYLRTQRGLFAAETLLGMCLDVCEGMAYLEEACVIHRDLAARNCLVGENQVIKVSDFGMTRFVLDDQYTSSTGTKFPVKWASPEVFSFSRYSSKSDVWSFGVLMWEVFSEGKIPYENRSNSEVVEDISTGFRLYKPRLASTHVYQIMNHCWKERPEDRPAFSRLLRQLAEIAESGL
# [2] = target: T1, Tyrosine-protein kinase ITK/TSK; assay: Antagonist activity at ITK expressed in chicken DT40 B cells assessed as inhibition of calcium flux; assay type: functional, cell-based
# [3] = target: T2, Tyrosine-protein kinase TXK (Homo sapiens, UniProt P42681); assay: Inhibition of TXK
# T2 sequence (P42681 whole entry): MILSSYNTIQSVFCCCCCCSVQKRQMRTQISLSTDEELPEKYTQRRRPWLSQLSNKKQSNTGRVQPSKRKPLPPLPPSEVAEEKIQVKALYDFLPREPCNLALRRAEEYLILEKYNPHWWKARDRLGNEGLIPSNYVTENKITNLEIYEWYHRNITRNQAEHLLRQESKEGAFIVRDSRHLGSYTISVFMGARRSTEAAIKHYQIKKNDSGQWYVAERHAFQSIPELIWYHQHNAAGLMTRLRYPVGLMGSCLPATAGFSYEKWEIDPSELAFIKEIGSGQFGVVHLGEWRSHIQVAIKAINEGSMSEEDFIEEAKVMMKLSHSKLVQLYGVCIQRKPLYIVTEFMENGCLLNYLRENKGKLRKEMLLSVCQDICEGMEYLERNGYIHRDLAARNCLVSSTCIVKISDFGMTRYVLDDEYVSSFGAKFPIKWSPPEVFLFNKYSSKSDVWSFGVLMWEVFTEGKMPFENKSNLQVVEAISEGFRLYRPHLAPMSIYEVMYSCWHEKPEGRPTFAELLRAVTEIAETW
# [4] = target: Tyrosine-protein kinase BTK (Homo sapiens, UniProt Q06187); assay: Inhibition of BTK
# Chain of Tyrosine-protein kinase BTK (Q06187 whole entry): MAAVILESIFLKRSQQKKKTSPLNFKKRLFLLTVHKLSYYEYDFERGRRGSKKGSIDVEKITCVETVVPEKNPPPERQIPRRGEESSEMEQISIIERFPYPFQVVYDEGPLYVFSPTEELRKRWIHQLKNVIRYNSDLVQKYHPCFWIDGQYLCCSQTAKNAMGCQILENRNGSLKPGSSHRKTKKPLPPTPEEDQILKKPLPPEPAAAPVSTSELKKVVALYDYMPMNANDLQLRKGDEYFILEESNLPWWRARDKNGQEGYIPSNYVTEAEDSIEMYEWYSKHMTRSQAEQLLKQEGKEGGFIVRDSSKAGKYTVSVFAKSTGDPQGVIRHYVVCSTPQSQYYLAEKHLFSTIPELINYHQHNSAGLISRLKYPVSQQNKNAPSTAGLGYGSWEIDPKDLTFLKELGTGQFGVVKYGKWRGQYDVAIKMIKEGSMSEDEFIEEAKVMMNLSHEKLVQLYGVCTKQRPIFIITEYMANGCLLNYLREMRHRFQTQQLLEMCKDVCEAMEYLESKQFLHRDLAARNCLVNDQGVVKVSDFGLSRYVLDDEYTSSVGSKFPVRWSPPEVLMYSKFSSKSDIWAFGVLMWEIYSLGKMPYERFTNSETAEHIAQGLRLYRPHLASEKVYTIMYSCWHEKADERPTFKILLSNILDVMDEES
# Chain of Insulin receptor (P06213 28-758 limits assumed): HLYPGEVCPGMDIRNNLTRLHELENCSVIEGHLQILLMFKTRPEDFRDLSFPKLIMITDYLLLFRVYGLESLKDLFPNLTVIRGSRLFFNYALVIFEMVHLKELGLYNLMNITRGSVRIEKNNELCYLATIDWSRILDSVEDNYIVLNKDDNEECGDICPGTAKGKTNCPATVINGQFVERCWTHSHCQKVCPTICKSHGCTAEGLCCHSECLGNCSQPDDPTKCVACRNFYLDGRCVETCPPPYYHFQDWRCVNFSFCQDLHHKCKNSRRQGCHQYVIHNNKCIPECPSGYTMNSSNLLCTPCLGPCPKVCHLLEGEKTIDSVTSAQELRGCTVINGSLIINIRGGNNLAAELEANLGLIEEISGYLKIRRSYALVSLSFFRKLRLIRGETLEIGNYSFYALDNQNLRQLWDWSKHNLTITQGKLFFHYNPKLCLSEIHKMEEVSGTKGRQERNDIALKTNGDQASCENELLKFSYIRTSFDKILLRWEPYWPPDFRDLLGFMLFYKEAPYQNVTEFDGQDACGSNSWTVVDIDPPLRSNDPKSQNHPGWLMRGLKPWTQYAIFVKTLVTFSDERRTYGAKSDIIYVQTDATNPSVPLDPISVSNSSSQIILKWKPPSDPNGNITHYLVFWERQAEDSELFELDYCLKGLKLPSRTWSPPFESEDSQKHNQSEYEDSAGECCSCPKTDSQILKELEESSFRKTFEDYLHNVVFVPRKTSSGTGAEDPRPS
# Chain of Insulin receptor (P06213 763-1382 limits assumed): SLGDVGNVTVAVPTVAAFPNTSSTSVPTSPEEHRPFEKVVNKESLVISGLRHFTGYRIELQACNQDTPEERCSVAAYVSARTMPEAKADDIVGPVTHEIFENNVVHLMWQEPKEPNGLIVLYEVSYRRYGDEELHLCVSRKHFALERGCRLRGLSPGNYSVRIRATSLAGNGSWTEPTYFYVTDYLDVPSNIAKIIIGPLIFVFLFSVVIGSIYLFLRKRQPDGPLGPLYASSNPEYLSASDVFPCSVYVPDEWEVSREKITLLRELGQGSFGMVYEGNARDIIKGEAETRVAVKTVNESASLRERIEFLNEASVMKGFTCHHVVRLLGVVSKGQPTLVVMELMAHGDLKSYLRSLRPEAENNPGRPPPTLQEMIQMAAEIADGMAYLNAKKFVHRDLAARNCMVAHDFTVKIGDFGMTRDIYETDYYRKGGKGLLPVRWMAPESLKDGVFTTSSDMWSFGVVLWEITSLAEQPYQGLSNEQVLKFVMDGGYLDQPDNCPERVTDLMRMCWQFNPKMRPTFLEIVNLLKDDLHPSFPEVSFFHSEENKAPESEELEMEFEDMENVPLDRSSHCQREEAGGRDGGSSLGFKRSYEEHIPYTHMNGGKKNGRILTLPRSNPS
SMILES,IC50 (Insulin receptor) [µM],other results
CN(C(=O)c1ccccc1)c1ccc2c(c1)[nH]/c(=N\C(=O)c1ccc(/C=C/c3ccc(O)cc3)s1)n2CCC(N)=O,2.2,
CN(C(=O)c1ccccc1)c1ccc2c(c1)nc(NC(=O)c1ccc(/C=C/c3cccc(C(F)(F)F)c3)s1)n2CCC(N)=O,> 5,
COc1ccc(/C=C/c2ccc(C(=O)/N=c3\[nH]c4cc(N(C)C(=O)c5ccccc5)ccc4n3CCC(N)=O)s2)cc1,> 5,
CN(C(=O)c1ccccc1)c1ccc2c(c1)[nH]/c(=N\C(=O)c1ccc(/C=C/c3ccccc3C(F)(F)F)s1)n2CCC(N)=O,> 5,
COc1cccc(/C=C/c2ccc(C(=O)Nc3nc4cc(N(C)C(=O)c5ccccc5)ccc4n3CCC(N)=O)s2)c1,> 5,
CN(C(=O)c1ccccc1)c1ccc2c(c1)nc(NC(=O)c1cccs1)n2CCC(N)=O,,IC50 (T-cell): > 5 µM
CN(C(=O)c1ccccc1)c1ccc2c(c1)[nH]/c(=N\C(=O)c1ccc(/C=C/c3cccnc3)s1)n2CCC(N)=O,> 5,
CN(C(=O)c1ccccc1)c1ccc2c(c1)[nH]/c(=N\C(=O)c1ccc(/C=C/c3cn[nH]c3)s1)n2CCC(N)=O,,IC50 (T-cell): 3 µM
C=C(C)c1ccc(C(=O)/N=c2\[nH]c3cc(N(C)C(=O)c4ccccc4)ccc3n2CCC(N)=O)s1,> 5,
COC(=O)/C=C(\C)c1ccc(C(=O)/N=c2\[nH]c3cc(N(C)C(=O)c4ccccc4)ccc3n2CCC(N)=O)s1,3.6,
CN(C(=O)c1ccccc1)c1ccc2c(c1)[nH]/c(=N\C(=O)c1ccc(/C=C/n3ccnc3)s1)n2CCC(N)=O,> 5,IC50 [1]: 0.012 µM; IC50 [2]: 2.2 µM
C=Cc1ccc(C(=O)Nc2nc3cc(N(C)C(=O)c4ccccc4)ccc3n2CCC(N)=O)s1,0.48,
COC(=O)/C=C/c1ccc(C(=O)/N=c2\[nH]c3cc(N(C)C(=O)c4ccccc4)ccc3n2CCC(N)=O)s1,> 5,
CN(C(=O)c1ccccc1)c1ccc2c(c1)[nH]/c(=N\C(=O)c1ccc(/C=C/c3ccncc3)s1)n2CCC(N)=O,> 5,
CN(C(=O)c1ccccc1)c1ccc2c(c1)[nH]/c(=N\C(=O)c1ccc(/C=C/c3cnccn3)s1)n2CCC(N)=O,> 5,IC50 [1]: 0.008 µM; IC50 [2]: 0.81 µM
CN(C(=O)c1ccccc1)c1ccc2c(c1)[nH]/c(=N\C(=O)c1ccc(/C=C/c3cccc(N)c3)s1)n2CCC(N)=O,4.9,
CN(C(=O)c1ccccc1)c1ccc2c(c1)nc(NC(=O)c1ccc(/C=C/c3ccc(N)cc3)s1)n2CCC(N)=O,3.3,
CN(C(=O)c1ccccc1)c1ccc2c(c1)[nH]/c(=N\C(=O)c1ccc(/C=C/c3ncc(N)cn3)s1)n2CCC(N)=O,1.5,IC50 [1]: 0.005 µM; IC50 [2]: 0.41 µM; IC50 [3]: 0.7 µM; IC50 (T-cell): 1.6 µM; IC50 [4]: 0.005 µM
CN(C(=O)c1ccccc1)c1ccc2c(c1)[nH]/c(=N\C(=O)c1ccc(/C=C/c3cccc([N+](=O)[O-])c3)s1)n2CCC(N)=O,4.3,
COc1ccccc1/C=C/c1ccc(C(=O)/N=c2\[nH]c3cc(N(C)C(=O)c4ccccc4)ccc3n2CCC(N)=O)s1,> 5,
CN(C(=O)c1ccccc1)c1ccc2c(c1)[nH]/c(=N\C(=O)c1ccc(/C=C/c3cccc(N)n3)s1)n2CCC(N)=O,3.8,IC50 [1]: 0.007 µM; IC50 [2]: 2 µM
C/C(=C\c1ccncc1)c1ccc(C(=O)/N=c2\[nH]c3cc(N(C)C(=O)c4ccccc4)ccc3n2CCC(N)=O)s1,> 5,
C/C(=C\c1cccnc1)c1ccc(C(=O)/N=c2\[nH]c3cc(N(C)C(=O)c4ccccc4)ccc3n2CCC(N)=O)s1,> 5,
CN(C(=O)c1ccccc1)c1ccc2c(c1)[nH]/c(=N\C(=O)c1ccc(/C=C/c3ccccc3N)s1)n2CCC(N)=O,1.95,
C/C(=C\c1ccccc1)c1ccc(C(=O)Nc2nc3cc(N(C)C(=O)c4ccccc4)ccc3n2CCC(N)=O)s1,> 5,
CN(C(=O)c1ccccc1)c1ccc2c(c1)[nH]/c(=N\C(=O)c1ccc(/C=C/c3ccc(C(F)(F)F)cc3)s1)n2CCC(N)=O,> 5,
CN(C(=O)c1ccccc1)c1ccc2c(c1)[nH]/c(=N\C(=O)c1ccc(/C=C/c3ccccc3)s1)n2CCC(N)=O,0.97,
C/C(=C\C#N)c1ccc(C(=O)/N=c2\[nH]c3cc(N(C)C(=O)c4ccccc4)ccc3n2CCC(N)=O)s1,4.5,

# From ChEMBL document CHEMBL1152261, “2-Aminobenzimidazoles as potent ITK antagonists: trans-stilbene-like moieties targeting the kinase specificity pocket” (Bioorg Med Chem Lett, 2008)
